Results on two compounds are retold here after patent US10213445B2, “Compositions and methods of diazeniumdiolate-based prodrugs for treating cancer” (ARIZONA BOARD OF REGENTS ON BEHALF OF THE UNIVERSITY OF …, priority 2014, dated 2019).

Data set [1] is described as follows: Stability in phosphate buffer pH 7.4. The data set is classed as physicochemical. On the procedure: The newly synthesized HNO-releasing aspirin (IPA/NO-aspirin, 4) and NO-releasing aspirin (DEA/NO-aspirin, 8) were evaluated for the kinetic profile of NO and HNO release in buffer and cells.
The next data set deals with MCF-10A cells. Kind of data set: MTT cell viability. The settings on record: read-out: concentration for 50% reduction of viability (IC50), 48 h, did not reach a 50% reduction at 200 μM. The data set is classed as cell-based, human. On the procedure:
(§1) Figures are representative of three trials with data plotted as mean percentage versus untreated cells±SD of the four replicates per plate). Vehicle (DMSO or 10 mM NaOH) was added as a control to otherwise untreated cells.
(§2) For examples utilizing cell culture methods, the following procedure was instituted. Human breast adenocarcinoma cells (MDA-MB-231, MCF-7 and MDA-MB-468; American Type Culture Collection, Manassas, Va.) were grown as monolayers in RPMI 1640 (Invitrogen, Carlsbad, Calif.) supplemented with 10% FBS (Hyclone, Thermo Fisher Scientific Inc., Waltham, Mass.), penicillin (50 units mL^−1) and streptomycin ([…]; Life Technologies, Inc., Grand Island, N.Y.). Non-tumorigenic, human breast epithelial cells (MCF-10A; American Type Culture Collection) and HUVECs (Cell Applications, Inc., San Diego, Calif.) were grown as monolayers in endothelial growth media (Lonza Inc., US-Allendale, N.J. or Cell Applications, Inc., San Diego, Calif.). Cells were seeded at a density of 1×10^6 cells per 100 cm^2 culture dish and were incubated at 37° C. in 5% CO2 at 80% relative humidity. Single-cell suspensions were obtained by trypsinization (0.05% trypsin/EDTA, Invitrogen, Carlsbad, Calif.). MDA-MB-231 cells stably transfected with green fluorescent protein (GFP) and G418 antibiotic resistance gene were a generous gift from Dr. Aldona Karaczyn from the Maine Medical Center Research Institute, Scarborough, Me. MDA-MB-231-GFP cells were grown as described for MDA-MB-231 cells with the addition of […] ([…]) to ensure vector presence.
(§3) In this example, the impact of IPA/NO-aspirin and DEA/NO-aspirin was assessed compared to aspirin or the parent diazeniumdiolate on proliferation of four human breast cell lines: MDA-MB-231 (ER(−) adenocarcinoma), MDA-MB-468 (ER(−) adenocarcinoma), MCF-7 (ER(+) adenocarcinoma) and MCF-10A (non-tumorigenic, immortalized human breast epithelial cells).

The next data set concerns MCF-7 cells. Kind of data set: MTT cell viability. The settings on record: read-out: concentration for 50% reduction of viability (IC50), MCF-7, 48 h, mean ± SD for three trials. The data set is classed as cell-based, human. On the procedure:
as §1, §2, §3

In data set [2] the test system is MDA-MB-231 cells. Kind of data set: MTT cell viability. The data set is classed as cell-based, human. The conditions noted are these: read-out: concentration for 50% reduction of viability (IC50), MDA-MB-231, 48 h, mean ± SD for three trials. On the procedure: as §1, §2, §3
A further data set relates to MDA-MB-468 cells. Kind of data set: MTT cell viability. The conditions noted are these: read-out: concentration for 50% reduction of viability (IC50), MDA-MB-468, 48 h, mean ± SD for three trials. The data set is classed as cell-based, human. On the procedure:
as §1, §2, §3

In the next data set the test system is MDA-MB-231 xenografts. Kind of data set: MDA-MB-231-GFP xenograft growth and brain metastasis in nude mice. In kind it is in vivo. The settings on record: daily injection of equimolar doses for five weeks; for size of the primary tumor (GFP fluorescence intensity, tumor mass): vs control.
Another data set addresses T1, GAPDH in MCF-10A cells (Homo sapiens, UniProt P04406).
T1 construct: host or cells: MDA-MB-231; MCF-10A
As to the kind of experiment: GAPDH activity in cells. In kind it is cell-based. The settings on record: 0-100 μM, 1 h, 37° C. On the procedure:
(§4) The cells were treated with varied concentrations (0, 25, 50, 75, 100 μM) of IPA/NO-aspirin (blue) or DEA/NO-aspirin (green) for 1 h at 37° C. GAPDH activity was assessed by measuring fluorescence intensity at 570 nm. Data are plotted as mean±SD (n=3).
(§5) GAPDH is a critical glycolytic enzyme that can play an important role in cancer therapy as solid tumors often utilize glycolytic pathways even during normoxia to meet their energy requirements. Thus, inhibition of GAPDH can diminish ATP availability for tumor cells. GAPDH is also involved in initiation of apoptosis and in DNA repair.

Data set [3] concerns the target T2, GAPDH in MDA-MB-231 cells (Homo sapiens, UniProt P04406).
T2 construct: host or cells: MDA-MB-231; MCF-10A
As to the kind of experiment: GAPDH activity in cells. The settings on record: MDA-MB-231, 0-100 μM, 1 h, 37° C. In kind it is cell-based. On the procedure: as §4, §5

Data set [4] concerns MDA-MB-231 cells. Kind of data set: Oxidation of DCF (oxidant level) in cells. The data set is classed as cell-based, human. The conditions noted are these: 100 μM, 37° C., MDA-MB-231 as representative example.
Protocol: DCF loaded cells were treated with IPA/NO-aspirin (blue), DEA/NO-aspirin (green), IPA/NO (magenta), DEA/NO (brown), aspirin (red) or DMSO (0.1%; black) at 37° C., and the fluorescence at 535 nm was measured in a time-dependent manner. Data are plotted as mean±SD (n=4).
Data set [5] is described as follows: Prodrug decomposition in cells. The data set is classed as in vitro ADME. The settings on record: A549 cells.
The test system of data set [6] is HUVECs. Kind of data set: Tube formation (angiogenesis) in Matrigel. In kind it is cell-based, human. The settings on record: 12 hours, 1 and 10 μM, vs control. On the procedure: Cells in Matrigel were treated with A) DMSO, B) 1 μM or C) 10 μM IPA/NO-aspirin, D) 1 μM or E) 10 μM DEA/NO-aspirin at 37° C., and the extent of tube formation was measured after 12 h using a microscope.
The impact of the NONO-aspirin prodrugs on tube formation in HUVECs after 12 hours treatment was examined as a measure of angiogenesis.

Data set [7] relates to HUVECs. Kind of data set: Cytotoxicity toward HUVECs. In kind it is cell-based, human. The settings on record: previously determined.
Data set [8] relates to E-cadherin in MDA-MB-231 cells. Kind of data set: E-cadherin expression (RT-PCR, Western blot). The conditions noted are these: 100 μM, 3, 6 or 12 h; for E-cadherin mRNA expression: RT-PCR; for E-cadherin protein level: Western blot. The data set is classed as cell-based, human. On the procedure:
The cells were treated with vehicle (black) or 100 μM IPA/NO-aspirin (blue) or DEA/NO-aspirin (green) for 3, 6 or 12 h at 37° C. Relative mRNA expression was measured using RT-PCR techniques. E-cadherin mRNA were quantified with respect to control (1).
The cells were treated with vehicle (black) or 100 μM IPA/NO-aspirin (blue) or DEA/NO-aspirin (green) for 3, 6 or 12 h at 37° C. Protein expression was measured using Western blot techniques. E-cadherin protein levels were quantified with respect to control (100%).
Epithelial cadherin (E-cadherin) is calcium-dependent, membrane-associated cellular adhesion glycoprotein. Loss of E-cadherin-mediated cellular adhesion is a prerequisite for invasion and metastasis of tumor cells. NO is an endogenous mediator of endothelial cell migration. […] However, the effect of HNO on metastasis has not been studied. […] This can result in a reversal of tumor cells from an invasive, mesenchymal, to a benign, epithelial phenotype.
On the technique in general: A western blot detects proteins with antibodies after separation by electrophoresis.

The subject of another data set is lung carcinoma cells. The settings on record: selective compared to normal endothelial cells, read-out: IC50 (proliferation); cited from earlier work.

T1 sequence (P04406 whole entry): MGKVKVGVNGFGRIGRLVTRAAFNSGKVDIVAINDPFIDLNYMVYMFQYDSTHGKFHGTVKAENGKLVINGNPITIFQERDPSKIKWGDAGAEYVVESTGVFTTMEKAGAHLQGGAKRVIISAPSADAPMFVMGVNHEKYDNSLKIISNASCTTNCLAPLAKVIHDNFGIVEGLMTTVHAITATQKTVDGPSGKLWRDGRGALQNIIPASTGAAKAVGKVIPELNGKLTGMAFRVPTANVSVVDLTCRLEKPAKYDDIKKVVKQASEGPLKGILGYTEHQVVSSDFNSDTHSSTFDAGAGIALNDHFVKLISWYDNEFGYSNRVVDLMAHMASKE
T2 sequence (P04406 whole entry): as above
Protocol for MDA-MB-231 xenografts: The cells were allowed to grow for 14 d, and the animals (40) were randomly divided into four groups (control, aspirin, IPA/NO-aspirin or DEA/NO-aspirin). Treated groups were injected daily with equimolar doses of DEA/NO-aspirin or IPA/NO-aspirin (16 mg kg^−1) or aspirin (9 mg kg^−1)) or with DMSO for the next five weeks.
For examples utilizing mouse tumor model methods, the following procedure was instituted. Analysis of tumor growth was carried out using protocols approved by the Committee on the Ethics of Animal Experiments of the National Cancer Institute (RBB-144) and adhered with the recommendations in the United States National Research Council's “Guide for the Care and Use of Laboratory Animals,” the United States Public Health Service's “Guide for the Care and Use of Laboratory Animals” and the “Policy on Humane Care and Use of Laboratory Animals”. The vivarium was maintained at 23° C. on a 12 h light/12 h dark cycle with ad libitum access to food and water. Nude mice (n=40) under general anesthesia were implanted with 7.5×10^5 MDA-MB-231 cells transfected with GFP by injection underneath the fourth left mammary gland. Prior to implantation, pedal withdrawal and eyelid reflexes were examined to ensure that mice were under stage III of anesthesia. At 14 days post-inoculation, the mice were randomly divided into four groups and treated by daily injection of equimolar doses (10 μL of 100 mM stock) of aspirin (9.00 mg kg^−1), IPA/NO-aspirin (15.8 mg kg^−1) or DEA/NO-aspirin (16.3 mg kg^−1) or with vehicle (DMSO). After five weeks, the tumor size was measured using in vivo fluorescent imaging for quantification of the GFP tag. In brief, mice were under general anesthesia throughout the whole body imaging process, and GFP signals were captured and quantified in an Xenogen IVIS 100 Imaging System according to the manufacturer's protocol. To assess metastasis in the brain, the animals were subsequently sacrificed following the approved method and guidelines.

Regarding `CCN(CC)[N+]([O-])=NOCOC(=O)c1ccccc1OC(C)=O` [DEA/NO-aspirin, O2-(Acetylsalicyloyloxymethyl)-1-(N,N-Diethylamino)-diazen-1-ium-1,2-diolate], the stability in buffer result in [1] is reported as “relatively stable in phosphate buffer pH 7.4 for several hours”. Moreover, the IC50 in the data set with MCF-10A cells was greater than 200 µM; in the data set on MCF-7 cells it was 122 ± 3 µM; with MDA-MB-231 cells [2], 102 ± 10 µM; with MDA-MB-468 cells, 90 ± 4 µM; with lung carcinoma cells it was 100 µM. Moreover, in the data set on MDA-MB-231 xenografts, the “metastasis to the brain (GFP fluorescence)” value is “decreased metastasis compared to aspirin and untreated controls, the results were not statistically significant”. Besides, the “size of the primary tumor (GFP fluorescence intensity, tumor mass)” value in the data set with MDA-MB-231 xenografts is given as “substantial, although not statistically significant, reduction”. Also, the GAPDH activity result (on GAPDH in MCF-10A cells; in [3]) was “not inhibitory in either cell line” each time. Besides, the “oxidation of DCF (fluorescence intensity)” value in the data set with MDA-MB-231 cells [4] is “minimal impact”. Moreover, in data set [5], the “lifetime in cells relative to IPA/NO-aspirin” value is “about three times longer-lived”. Moreover, the “angiogenesis (tube formation)” value with HUVECs [6] is listed as “reduced angiogenesis”. In addition, the “cytotoxicity toward HUVECs” value with HUVECs [7] is recorded as “neither IPA/NO-aspirin or DEA/NO-aspirin are appreciably cytotoxic”. Moreover, the “E-cadherin mRNA expression” value in data set [8] was “did increase E-cadherin expression in a time-dependent manner”. Further, the E-cadherin protein level result in data set [8] is on record as “did increase E-cadherin expression in a time-dependent manner”.

On to `CC(=O)Oc1ccccc1C(=O)OCON=[N+]([O-])NC(C)C` [IPA/NO-aspirin, O2-(Acetylsalicyloyloxymethyl)-1-(N-isopropylamino)-diazen-1-ium-1,2-diolate], for which the stability in buffer result in data set [1] is recorded as “relatively stable in phosphate buffer pH 7.4 for several hours”. The IC50 in the data set on MCF-10A cells is greater than 200 µM; in the data set on MCF-7 cells, 93 ± 2 µM; in the data set on MDA-MB-231 cells [2], 92 ± 1 µM; in the data set on MDA-MB-468 cells, 81 ± 2 µM; with lung carcinoma cells, 100 µM. Besides, the “metastasis to the brain (GFP fluorescence)” value with MDA-MB-231 xenografts was “decreased metastasis compared to aspirin and untreated controls, the results were not statistically significant”. The “size of the primary tumor (GFP fluorescence intensity, tumor mass)” value in the data set on MDA-MB-231 xenografts is on record as “significant decrease”. Further, the GAPDH activity result on GAPDH in MCF-10A cells was “did not affect GAPDH activity”; in [3], “inhibited GAPDH activity in a concentration (FIG. 9A) and time-dependent-manner”. The “oxidation of DCF (fluorescence intensity)” value in the data set on MDA-MB-231 cells [4] is “significant increase in fluorescence intensity”. Also, the “time to complete decomposition in cells” value in [5] is on record as “approximately 3 hours”. In addition, the “angiogenesis (tube formation)” value with HUVECs [6] was “reduced angiogenesis”. For the same compound, the “cytotoxicity toward HUVECs” value in the data set with HUVECs [7] is “neither IPA/NO-aspirin or DEA/NO-aspirin are appreciably cytotoxic”. Further, the “E-cadherin mRNA expression” value in data set [8] was “does not show any significant change”. Also, the E-cadherin protein level entry in [8] is on record as “does not show any significant change”.
